Source: patent US10738024B2, “Compounds for treatment of angiogenesis-mediated diseases” (Indiana University Research and Technology Corporation, priority 2013, dated 2020)

Legend:
VEGFR2 = assay: Phosphorylation of VEGFR2 in HRECs upon VEGF stimulation (immunoblot); assay type: cell-based, human; settings: 100 ng/ml VEGF, 20 minutes
Method: HRECs were seeded at 10^5 cells/well in a 6-well plate and after 24 hours of incubation at 37° C., cells were serum starved in 0.1% serum-EBM-2 for 8 hours. Cells were then treated with the indicated concentrations of SH-11052 (2) for one hour before the addition of 100 ng/ml VEGF. After 20 minutes, cells were lysed in NP-40 Lysis buffer containing 25 mM HEPES pH 7.4, 1% NP-40, 150 mM NaCl, 10% glycerol, 1 mM sodium orthovanadate, 10 mM sodium fluoride, 1 mM sodium pyrophosphate, 1 mM PMSF, 2.5 mg/ml aprotinin, 1 mM pepstatin, and 1 mM leupeptin. Equal amounts of proteins (80 μg), as measured by a Bradford assay, were run on 10% SDS-PAGE, transferred to PVDF membrane, blocked with 5% BSA in TBS-0.05% Tween-20 and immunoblotted with the indicated primary antibodies (1:1000 in 1% BSA in TBS-0.05% Tween-20) overnight at 4° C. After three washes in TBS-0.05% Tween-20, HRP-conjugated secondary antibodies (1:5000 in 5% BSA in TBS-0.05% Tween-20) were applied for one hour at room temperature. After three washes, the protein bands were detected and densitized using ECL Prime western blot detection reagent (GE Life Sciences, Piscataway, N.J., USA) and an XRS gel documentation system running Quantity One software (Bio-Rad). Target protein band intensity was normalized to housekeeping gene α-tubulin. […]

CCL2 (MCP-1) = assay: qRT-PCR of NF-κB target gene CCL2 in TNF-α challenged cells; assay type: cell-based, human; settings: 10 ng/ml TNF-α for 24 hours; listed as SH-11052 (2)
Method: Similarly, the mRNA expression of the pro-inflammatory molecules IL8, PTGS2 (COX2) and CCL2 (MCP-1), inducible by NF-κB, were analyzed in the presence of SH-11052 (2). Cells (10^5 per well) were seeded in a 6-well plate and incubated for 24 hours at 37° C. and 5% CO2. The cells were then starved in 0.1% serum-EBM-2 for 12 hours followed by incubation for an hour in the presence of different concentrations of SH-11052 (2). The cells were then challenged for 24 hours with 10 ng/ml TNF-α. Following incubation, cells were lysed and RNA was isolated using Trizol reagent (Life Technologies). cDNA was prepared from 80 ng total RNA using random primers and M-MuLV Reverse Transcriptase (New England Biolabs, Ipswich, Mass., USA). RT-PCR reactions were set up using the TaqMan Fast Gene Expression Assay Kit according to the manufacturer's instructions. FAM-labeled TaqMan probes for PTGS2 (Hs00153133_m1), CCL2 (Hs00234140_m1), IL8 (Hs00174103_m1), and control, TBP (Hs99999910_m1), genes were used to monitor the expression levels of these genes. The qRT-PCR plate was read in a ViiATM 7 qPCR system (Life Technologies) and the data were analyzed using the ΔΔCt method. The expression levels of genes were normalized to TBP gene expression and calibrated to the DMSO-treated, unstimulated sample.

SMILES: COc1ccc(CC2COc3cc(OC)c(O)c(O)c3C2=O)cc1O (single isomer, unassigned) [Compound 2]
- phosphorylation of VEGFR2 (VEGFR2): did not inhibit phosphorylation
- mRNA expression of CCL2 (MCP-1) (CCL2 (MCP-1)): decreased the expression
